{"source": "patent US20090011424A1", "about": "“Cancer-suppressing agents” (Tokyo Medical and Dental University, priority 2005, published 2009)", "tested_on": "SMS-KAN cell", "test": "messenger RNA expression analysis, AceGene Human oligo chip 30 K, NR1I2-expressing clone B1 vs control clone", "format": "cell-based", "conditions": "1st: Cy3-B1/Cy5-control", "text": "The NR1I2 gene has been known as a transcriptional factor. Thus, it is possible to know what type of gene expression is controlled by obtaining messenger RNAs from cells causing NR1I2 protein expression and cells not causing such expression, and comparing the expression levels thereof with each other. As described above, the NR1I2 gene protein may have an effect of inhibiting cancer. […] Therefore, pCMV-Tag3 vector not containing a foreign gene as a control was introduced into SMS-KAN cell, and pCMV-Tag3-VP-NR1I2 containing the NR1I2 gene as a test sample was introduced into SMS-KAN cell. As a result, a control cell clone and a cell clone B1 permanently causing NR1I2 protein expression were obtained. Thereafter, analysis of messenger RNA expression was carried out using these two types of cells and an AceGene Human oligo chip 30 K (DNA Chip Research Inc.), with which the expression levels of 30,000 human genes can be observed (Inoue. J., et al. Am J. Pathol. 165. 71. 2004). A complementary strand DNA (complimentary DNA) was prepared, into which aminoallyl-dUTP (Ambion Inc.) was incorporated using an Oligo (dT) 12-18 primer. Then, the aminoallyl group was labeled with reactive Cy3 (cyanin 3) and Cy5 (cyanin 5) (Amersham Biosciences) via a coupling reaction. Hybridization was performed twice (1st: Cy3-B1/Cy5-control; 2nd: Cy5-B1/Cy3-control). Signals were measured using a GenePix 4000B (Axon Instruments) so as to be analyzed by GenePix Pro 4.1 software (Axon Instruments). Tables 3 and 4 are lists of genes, where in the cases of SMS-KAN cells into which the NR1I2 gene had been introduced in the two experiments, the expression levels were 1.5-fold or greater than the expression level in the case of a control cell clone."}
{"substance": "NR1I2 gene: human-derived gene, nuclear receptor subfamily 1, group I, member 2 (pregnane X receptor, PXR), nucleotide sequence SEQ ID NO: 1", "values": [{"measurement": "ADAMTS2 expression level Ratio 1st", "value": 1.58}, {"measurement": "ADNP expression level Ratio 1st", "value": 1.61}, {"measurement": "AP3S2 expression level Ratio 1st", "value": 2.51}, {"measurement": "APEG1 expression level Ratio 1st", "value": 1.88}, {"measurement": "APOA1 expression level Ratio 1st", "value": 1.98}, {"measurement": "APP expression level Ratio 1st", "value": 2.03}, {"measurement": "ARHC expression level Ratio 1st", "value": 1.50}, {"measurement": "ARL2 expression level Ratio 1st", "value": 1.51}, {"measurement": "ASCL2 expression level Ratio 1st", "value": 2.43}, {"measurement": "ASH1 expression level Ratio 1st", "value": 1.81}, {"measurement": "B4GALT5 expression level Ratio 1st", "value": 1.54}, {"measurement": "BARD1 expression level Ratio 1st", "value": 1.90}, {"measurement": "BCAT2 expression level Ratio 1st", "value": 1.61}, {"measurement": "BLP2 expression level Ratio 1st", "value": 1.51}, {"measurement": "BMP15 expression level Ratio 1st", "value": 1.50}, {"measurement": "C6orf25 expression level Ratio 1st", "value": 1.74}, {"measurement": "CCNA1 expression level Ratio 1st", "value": 1.89}, {"measurement": "CDC7L1 expression level Ratio 1st", "value": 1.84}, {"measurement": "CISH expression level Ratio 1st", "value": 2.14}, {"measurement": "CORO2A expression level Ratio 1st", "value": 1.71}, {"measurement": "Cab45 expression level Ratio 1st", "value": 1.84}, {"measurement": "DKFZp434G05 expression level Ratio 1st", "value": 1.56}, {"measurement": "DKKL1 expression level Ratio 1st", "value": 1.53}, {"measurement": "DNA12 expression level Ratio 1st", "value": 1.52}, {"measurement": "EPHX1 expression level Ratio 1st", "value": 2.22}, {"measurement": "ERCC1 expression level Ratio 1st", "value": 1.82}, {"measurement": "ETR101 expression level Ratio 1st", "value": 1.65}, {"measurement": "EXT1 expression level Ratio 1st", "value": 1.87}, {"measurement": "FLJ10737 expression level Ratio 1st", "value": 1.51}, {"measurement": "FLJ12389 expression level Ratio 1st", "value": 2.16}, {"measurement": "FLJ13197 expression level Ratio 1st", "value": 2.95}, {"measurement": "FLJ13479 expression level Ratio 1st", "value": 1.92}, {"measurement": "FLJ20288 expression level Ratio 1st", "value": 1.81}, {"measurement": "FLJ20555 expression level Ratio 1st", "value": 1.51}, {"measurement": "FLJ23462 expression level Ratio 1st", "value": 1.64}, {"measurement": "FOFR3 expression level Ratio 1st", "value": 1.56}, {"measurement": "GLI2 expression level Ratio 1st", "value": 2.68}, {"measurement": "GNE expression level Ratio 1st", "value": 1.87}, {"measurement": "GSTT2 expression level Ratio 1st", "value": 3.23}, {"measurement": "GUCY1A3 expression level Ratio 1st", "value": 1.60}, {"measurement": "HHEX expression level Ratio 1st", "value": 1.55}, {"measurement": "HNT expression level Ratio 1st", "value": 1.55}, {"measurement": "HPCL2 expression level Ratio 1st", "value": 1.72}, {"measurement": "ICAM5 expression level Ratio 1st", "value": 1.52}, {"measurement": "IFIT4 expression level Ratio 1st", "value": 1.52}, {"measurement": "INSL6 expression level Ratio 1st", "value": 1.66}, {"measurement": "IRC039700 expression level Ratio 1st", "value": 2.12}, {"measurement": "KCNJ15 expression level Ratio 1st", "value": 1.88}, {"measurement": "KIAA0161 expression level Ratio 1st", "value": 1.54}, {"measurement": "KIAA0212 expression level Ratio 1st", "value": 2.01}, {"measurement": "LBP-9 expression level Ratio 1st", "value": 1.93}, {"measurement": "LDB1 expression level Ratio 1st", "value": 1.58}, {"measurement": "LICAM expression level Ratio 1st", "value": 1.87}, {"measurement": "LILRB5 expression level Ratio 1st", "value": 1.73}, {"measurement": "LOC51024 expression level Ratio 1st", "value": 1.67}, {"measurement": "LRP8 expression level Ratio 1st", "value": 1.52}, {"measurement": "LZLP expression level Ratio 1st", "value": 1.58}, {"measurement": "MAFG expression level Ratio 1st", "value": 2.51}, {"measurement": "MGC2306 expression level Ratio 1st", "value": 1.55}, {"measurement": "MGC2941 expression level Ratio 1st", "value": 1.90}, {"measurement": "MPP6 expression level Ratio 1st", "value": 1.67}, {"measurement": "MT-ACT48 expression level Ratio 1st", "value": 1.59}, {"measurement": "OCM expression level Ratio 1st", "value": 1.7}, {"measurement": "OMP expression level Ratio 1st", "value": 1.55}, {"measurement": "OPA3 expression level Ratio 1st", "value": 2.46}, {"measurement": "ORC5L expression level Ratio 1st", "value": 1.67}, {"measurement": "ORM1 expression level Ratio 1st", "value": 1.58}, {"measurement": "PCDHA4 expression level Ratio 1st", "value": 1.94}, {"measurement": "PCDHB10 expression level Ratio 1st", "value": 1.63}, {"measurement": "PDCD8 expression level Ratio 1st", "value": 2.00}, {"measurement": "PFKFB4 expression level Ratio 1st", "value": 4.90}, {"measurement": "PGAM1 expression level Ratio 1st", "value": 2.13}, {"measurement": "PITPN expression level Ratio 1st", "value": 1.73}, {"measurement": "PLA2G2A expression level Ratio 1st", "value": 3.01}, {"measurement": "PLCE1 expression level Ratio 1st", "value": 2.89}, {"measurement": "PLEKHA1 expression level Ratio 1st", "value": 1.54}, {"measurement": "PRO2121 expression level Ratio 1st", "value": 1.89}, {"measurement": "PRO2831 expression level Ratio 1st", "value": 1.51}, {"measurement": "RDH5 expression level Ratio 1st", "value": 1.62}, {"measurement": "RP1 expression level Ratio 1st", "value": 1.54}, {"measurement": "RPL39L expression level Ratio 1st", "value": 2.30}, {"measurement": "RPS16 expression level Ratio 1st", "value": 1.56}, {"measurement": "SC65 expression level Ratio 1st", "value": 1.56}, {"measurement": "SCD expression level Ratio 1st", "value": 1.74}, {"measurement": "SCN2B expression level Ratio 1st", "value": 1.52}, {"measurement": "SLC22A11 expression level Ratio 1st", "value": 1.66}, {"measurement": "SNAP91 expression level Ratio 1st", "value": 3.38}, {"measurement": "STK11 expression level Ratio 1st", "value": 1.62}, {"measurement": "SURF1 expression level Ratio 1st", "value": 1.92}, {"measurement": "TCEA1 expression level Ratio 1st", "value": 1.54}, {"measurement": "TGM2 expression level Ratio 1st", "value": 1.59}, {"measurement": "TIMM10 expression level Ratio 1st", "value": 1.87}, {"measurement": "TLAL1 expression level Ratio 1st", "value": 2.34}, {"measurement": "TMPRSS4 expression level Ratio 1st", "value": 1.55}, {"measurement": "TOP3B expression level Ratio 1st", "value": 1.59}, {"measurement": "TPARL expression level Ratio 1st", "value": 1.56}, {"measurement": "TRPV4 expression level Ratio 1st", "value": 1.77}, {"measurement": "TSPAN-1 expression level Ratio 1st", "value": 1.67}, {"measurement": "UXT expression level Ratio 1st", "value": 2.90}, {"measurement": "WHSC2 expression level Ratio 1st", "value": 1.65}]}
